Measurements taken from US6211168A, “Methods for preparation and use of 1α,24 (S)-dihydroxy vitamin D2” (Bone Care International, Inc, priority 1995, dated 2001).

Tests used:
[1] = system: postmenopausal osteoporotic out-patients; experiment: preventive treatment of bone mass loss in postmenopausal osteoporotic women; format: in vivo, human; settings: at or above 1.0 μg/day, 24 to 36 months
Experimental: A clinical study is conducted with postmenopausal osteoporotic out-patientshaving ages between 55 and 75 years. The study involves up to 120 patients randomly divided into three treatment groups and continues for 24 to 36 months. Two of the treatment groups receive constant dosages of 1α,24(S)-dihydroxy vitamin D2 (u.i.d.; two different dose levels at or above 1.0 μg/day) and the other group receives a matching placebo. All patients maintain a normal intake of dietary calcium (500 to 800 mg/day) and refrain from using calcium supplements. Efficacy is evaluated by pre-and post-treatment comparisons of the patient groups with regard to (a) total body calcium retention, and (b) radial and spinal bone mineral density as determined by dual-photon absorptiometry (DPA) or dual-energy x-ray absorptiometry (DEXA). Safety is evaluated by comparisons of urinary hydroxyproline excretion, serum and urine calcium levels, creatinine clearance, blood urea nitrogen, and other routine determinations.

[2] = system: men and women with renal disease undergoing chronic hemodialysis; experiment: hypocalcemia and metabolic bone disease in chronic hemodialysis patients; format: in vivo, human; settings: greater than 3.0 μg/day, twelve months
Experimental: A twelve-month, double-blind, placebo-controlled clinical trial is conducted with thirty men and women with renal disease who are undergoing chronic hemodialysis. […] Efficacy is evaluated by pre- and post-treatment comparisons of the two patient groups with regard to (a) direct measurements of intestinal calcium absorption, (b) total body calcium retention, (c) radial and spinal bone mineral density, or (d) determinations of serum calcium. Safety is evaluated by regular monitoring of serum calcium.

[3] = system: healthy postmenopausal women; experiment: prophylaxis of postmenopausal bone loss; format: in vivo, human; settings: at or above 1.0 μg/day
Experimental: A clinical study is conducted with healthy postmenopausal women having ages between 55 and 60 years. The study involves up to 80 patients randomly divided into two treatment groups, and continues for 24 to 36 months. One treatment group receives a constant dosage of 1α,24(S)-dihydroxy vitamin D2 (u.i.d.; a dose level at or above 1.0 μg/day) and the other receives a matching placebo. The study is conducted as indicated in Example 2 above.

HL-60 promyelocytes = experiment: HL-60 cell differentiation assay; format: cell-based; settings: dose-response; acid esterase, NBT reduction, thymidine incorporation
Experimental: A dose-response study is conducted with 1α,24(S)-(OH)2 D2 in the HL-60 cell differentiation assay as described by DeLuca and Ostrom (DeLuca, H. F. and Ostrem, V. K., Prog. Clin. Biol. Res., vol. 259, pp. 41-55 (1988)). In this study, 1α,25-(OH)2 D3 is used as a positive control and appropriate solvents are used as negative controls. The following variables are evaluated: nonspecific acid esterase activity, nitroblue tetrazolium (NBT) reduction, and thymidine incorporation.

[4] = system: dermatitis (contact and ectopic) patients; experiment: dermatological testing, topical treatment of dermatitis; format: in vivo, human; settings: ointment 10 μg per gram, twice daily, four to six weeks
Experimental: Compositions containing 1α,24(S)-dihydroxy vitamin D2 are evaluated for therapeutic efficacy of the composition in the topical treatment of dermatitis (contact and ectopic). The composition evaluated is an ointment containing 10 μg of 1α,24-dihydroxy vitamin D2 per gram of ointment in a petrolatum-almond oil base. […] The patients are treated in an out-patient clinic. They are instructed to use the preparation two times a day.
The ointment is as far as possible applied to a single lesion, or to an area of the disease. The ointment and its container are weighed before the treatment starts and returned with any unused contents for reweighing at the end of the treatment.
The area of the lesion treated is estimated and recorded, and the lesion is photographed as required, together with suitable "control" lesions. The latter are preferably lesions of similar size and stage of development, either in the vicinity of the treated lesion or symmetrically contralateral. Relevant details of the photographic procedure are recorded so as to be reproduced when the lesions are next photographed (distance, aperture, angle, background, etc.). The ointment is applied twice daily and preferably left uncovered. The "control" lesions are left untreated, but if this is not possible, the treatment used on them is noted. […]

vitamin D receptor (VDR) = target: T1, vitamin D receptor (VDR) (Homo sapiens, UniProt P11473); experiment: vitamin D-dependent transcriptional activation: growth hormone production in transfected COS-1 cells; format: cell-based; settings: transfected COS-1 cells
T1 construct: RXR partner endogenous (monkey)
T1 sequence (P11473 1-427): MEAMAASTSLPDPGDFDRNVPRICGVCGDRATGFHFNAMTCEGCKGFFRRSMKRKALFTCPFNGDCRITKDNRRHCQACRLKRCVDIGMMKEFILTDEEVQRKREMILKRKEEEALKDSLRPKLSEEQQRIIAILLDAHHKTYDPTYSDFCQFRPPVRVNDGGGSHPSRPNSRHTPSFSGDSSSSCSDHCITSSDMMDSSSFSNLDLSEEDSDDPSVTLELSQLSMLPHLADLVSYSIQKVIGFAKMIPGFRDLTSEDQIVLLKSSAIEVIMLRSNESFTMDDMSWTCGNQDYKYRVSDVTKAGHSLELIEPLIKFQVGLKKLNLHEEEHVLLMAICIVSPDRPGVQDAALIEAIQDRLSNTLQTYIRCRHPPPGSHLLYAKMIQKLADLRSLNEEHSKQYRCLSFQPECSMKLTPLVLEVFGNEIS
Experimental: The biological activity in vitro of chemically synthesized 1α,24(S)-(OH)2 D2 and 1α,24(R)-(OH)2 D2 was measured using a vitamin D-dependent transcriptional activation model system in which a vitamin D receptor (VDR)-expressing plasmid pSG5-hVDR1/3and a plasmid p(CT4)^4 TKGH containing a Growth Hormone (GH)-gene, under the control of a vitamin D-responsive element (VDRE) were co-transfected into Green monkey kidney, COS-1 cells. DNA's for these two vectors were supplied by Dr. Mark Haussler, Department of Biochemistry, University of Arizona, Tucson, Ariz.
Tranfected cells were incubated with vitamin D metabolites and growth hormone production was measured.

## C=C1/C(=C\C=C2/CCC[C@]3(C)[C@@H]([C@H](C)/C=C/[C@@](C)(O)C(C)C)CC[C@@H]23)C[C@@H](O)C[C@@H]1O [1α,24(S)-(OH)2 D2, 1α,24(S)-dihydroxy vitamin D2]
[1]
  incidence of hypercalcemia, hypercalciuria or other metabolic disturbance: insignificant incidence of hypercalcemia or hypercalciuria, or any other metabolic disturbance
  total body calcium, radial and spinal bone densities relative to placebo: significantly higher total body calcium, and radial and spinal bone densities relative to patients treated with placebo
[2]
  radial and spinal bone densities relative to baseline: stable radial and spinal bone densities
  total body calcium relative to baseline: stable values for total body calcium
[2]; double-isotope technique
  intestinal calcium absorption: significantly increases intestinal calcium absorption
[3]; 24 to 36 months
  losses in total body calcium, radial or spinal bone densities relative to baseline: reduced losses in total body calcium, radial or spinal bone densities relative to baseline values
[3]; long-term administration
  monitored safety parameters: confirm the safety of long-term 1α,24(S)-dihydroxy vitamin D2 administration
HL-60 promyelocytes
  differentiation of HL-60 promyelocytes to monocytes: potent activity in promoting differentiation of HL-60 promyelocytes to monocytes
[4]
  lesion severity score (erythema, scaling, thickness; 0 to 3): lower scores than the control lesions
Vitamin D receptor (VDR)
  activity in the transcriptional activation system compared with the 24(R) epimer: significantly more activity in this system than 1α,24(R)-(OH)2 D2
